Results on 15 molecules are retold here after publication PMC8145110, “Design, Synthesis, and Antibacterial Screening of Some Novel Heteroaryl-Based Ciprofloxacin Derivatives as DNA Gyrase and Topoisomerase IV Inhibitors” (Pharmaceuticals, 2021).

Each structure is given as a SMILES string.

The melting point is the temperature, or range, at which the solid turns liquid.

Take `O=C(O)c1cn(C2CC2)c2cc(N3CCN(Cn4nc(-c5ccccc5)oc4=S)CC3)c(F)cc2c1=O` [Compound 1, 1-Cyclopropyl-6-fluoro-4-oxo-7-[4-(5-phenyl-2-thioxo[1,3,4]oxadiazol-3-yl-methyl)-piperazin-1-yl]-1,4-dihydro-quinoline-3-carboxylic acid]: the melting point worked out at 228 °C.
Next, `O=C(O)c1cn(C2CC2)c2cc(N3CCN(Cn4nc(-c5ccccc5)n(-c5ccccc5)c4=S)CC3)c(F)cc2c1=O` [Compound 7, 1-Cyclopropyl-7-[4-(3,4-diphenyl-5-thioxo-4,5-dihydro-[1,2,4]triazol-1-ylmethyl)-piperazin-1-yl]-6-fluoro-4-oxo-1,4-dihydro-quinoline-3-carboxylic acid]: 288 °C.
Next, `O=C(O)c1cn(C2CC2)c2cc(N3CCN(Cn4nc(-c5ccccc5Cl)n(-c5ccccc5)c4=S)CC3)c(F)cc2c1=O` [Compound 8, 7-{4-[3-(2-Chloro-phenyl)-4-phenyl-5-thioxo-4,5-dihydro-[1,2,4]triazol-1-ylmethyl]-piperazin-1-yl}-1-cyclopropyl-6-fluoro-4-oxo-1,4-dihydro-quinoline-3-carboxylic acid]: 214 °C.
As for `O=C(O)c1cn(C2CC2)c2cc(N3CCN(Cn4nc(-c5ccc6ccccc6c5)n(-c5ccccc5)c4=S)CC3)c(F)cc2c1=O` [Compound 9, 1-Cyclopropyl-6-fluoro-7-[4-(3-naphthalen-2-yl-4-phenyl-5-thioxo-4,5-dihydro-[1,2,4]triazol-1-ylmethyl)-piperazin-1-yl]-4-oxo-1,4-dihydro-quinoline-3-carboxylic acid], the figure is 262 °C.
`O=C(O)c1cn(C2CC2)c2cc(N3CCN(Cn4nc(-c5ccccn5)n(-c5ccccc5)c4=S)CC3)c(F)cc2c1=O` [Compound 10, 1-Cyclopropyl-6-fluoro-4-oxo-7-[4-(4-phenyl-3-pyridin-2-yl-5-thioxo-4,5-dihydro-[1,2,4]triazol-1-ylmethyl)-piperazin-1-yl]-1,4-dihydro-quinoline-3-carboxylic acid] returned a melting point of 270 °C.
Consider `O=C(O)c1cn(C2CC2)c2cc(N3CCN(Cn4nc(-c5cccnc5)n(-c5ccccc5)c4=S)CC3)c(F)cc2c1=O` [Compound 11, 1-Cyclopropyl-6-fluoro-4-oxo-7-[4-(4-phenyl-3-pyridin-3-yl-5-thioxo-4,5-dihydro-[1,2,4]triazol-1-ylmethyl)-piperazin-1-yl]-1,4-dihydro-quinoline-3-carboxylic acid], for which the melting point came out at 280 °C.
As for `O=C(O)c1cn(C2CC2)c2cc(N3CCN(Cn4nc(-c5ccncc5)n(-c5ccccc5)c4=S)CC3)c(F)cc2c1=O` [Compound 12, 1-Cyclopropyl-6-fluoro-4-oxo-7-[4-(4-phenyl-3-pyridin-4-yl-5-thioxo-4,5-dihydro-[1,2,4]triazol-1-ylmethyl)-piperazin-1-yl]-1,4-dihydro-quinoline-3-carboxylic acid], the figure is 227 °C.
In the case of `O=C(O)c1cn(C2CC2)c2cc(N3CCN(CN4C(=O)C(c5ccccc5)(c5ccccc5)NC4=S)CC3)c(F)cc2c1=O` [Compound 13, 1-Cyclopropyl-6-fluoro-4-oxo-7-[4-(5-oxo-4,4-diphenyl-2-thioxo-imidazolidin-1-ylmethyl)-piperazin-1-yl]-1,4-dihydro-quinoline-3-carboxylic acid], the melting point is 217 °C.
The molecule `NN1C(=S)N(CN2CCN(c3cc4c(cc3F)c(=O)c(C(=O)O)cn4C3CC3)CC2)C(=O)C1(c1ccccc1)c1ccccc1` [Compound 14, 7-[4-(3-Amino-5-oxo-4,4-diphenyl-2-thioxo-imidazolidin-1-ylmethyl)-piperazin-1-yl]-1-cyclopropyl-6-fluoro-4-oxo-1,4-dihydro-quinoline-3-carboxylic acid] gave a melting point of 234 °C.
Next, `N#CN=C1NC(c2ccccc2)(c2ccccc2)C(=O)N1CN1CCN(c2cc3c(cc2F)c(=O)c(C(=O)O)cn3C2CC2)CC1` [Compound 15, 7-[4-(2-Cyanoimino-5-oxo-4,4-diphenyl-imidazolidin-1-ylmethyl)-piperazin-1-yl]-1-cyclopropyl-6-fluoro-4-oxo-1,4-dihydro-quinoline-3-carboxylic acid]: 230 °C; `O=C(O)c1cn(C2CC2)c2cc(N3CCN(CN4C(=O)SC(=Cc5ccc(Cl)cc5)C4=O)CC3)c(F)cc2c1=O` [Compound 17, 7-{4-[5-(4-Chloro-benzylidene)-2,4-dioxo-thiazolidin-3-ylmethyl]-piperazin-1-yl}-1-cyclopropyl-6-fluoro-4-oxo-1,4-dihydro-quinoline-3-carboxylic acid]: 244 °C; `COc1ccc(C=C2SC(=O)N(CN3CCN(c4cc5c(cc4F)c(=O)c(C(=O)O)cn5C4CC4)CC3)C2=O)cc1` [Compound 18, 1-Cyclopropyl-6-fluoro-7-{4-[5-(4-methoxy-benzylidene)-2,4-dioxo-thiazolidin-3-ylmethyl]-piperazin-1-yl}-4-oxo-1,4-dihydro-quinoline-3-carboxylic acid]: 251 °C.
In turn, `O=C(O)c1cn(C2CC2)c2cc(N3CCN(CN4C(=O)SC(=Cc5ccccc5O)C4=O)CC3)c(F)cc2c1=O` [Compound 19, 1-Cyclopropyl-6-fluoro-7-{4-[5-(2-hydroxy-benzylidene)-2,4-dioxo-thiazolidin-3-ylmethyl]-piperazin-1-yl}-4-oxo-1,4-dihydro-quinoline-3-carboxylic acid] displayed a melting point of 244 °C.
As to `O=C(O)c1cn(C2CC2)c2cc(N3CCN(CN4C(=O)c5ccccc5C4=O)CC3)c(F)cc2c1=O` [Compound 20, 1-Cyclopropyl-7-[4-(1,3-dioxo-1,3-dihydro-isoindol-2-ylmethyl)-piperazin-1-yl]-6-fluoro-4-oxo-1,4-dihydro-quinoline-3-carboxylic acid], the melting point turned out to be 241 °C.
Next, `O=C(O)c1cn(C2CC2)c2cc(N3CCN(CN4C(=O)CCC4=O)CC3)c(F)cc2c1=O` [Compound 21, 1-Cyclopropyl-7-[4-(2,5-dioxo-pyrrolidin-1-ylmethyl)-piperazin-1-yl]-6-fluoro-4-oxo-1,4-dihydro-quinoline-3-carboxylic acid]: 214 °C.
